# Source: patent US11028072B2, “2,4-diamino-6-ethylpyrimidine derivatives with antimalarial activities against Plasmodium falciparum” (National Science and Technology Development Agency, priority 2015, dated 2021)
# Where two headings read alike, the source gives them in different places.
# What was measured:
# [1] = test system: P. falciparum TM4/8.2 (wild type); assay: microbe, parasite or virus in culture; type: cell-based, Plasmodium falciparum; details: Plasmodium falciparum, read-out: IC50 P. falciparum TM4/8.2 (WT)
# From the text: (§1) In Vitro Antimalarial Activites Against P. falciparum and Cytotoxicity Towards Mammalian Cells (Vero Cells)
# [2] = test system: P. falciparum V1/S (N51I + C59R + S108 + I164L); assay: microbe, parasite or virus in culture; type: cell-based, Plasmodium falciparum; details: Plasmodium falciparum, read-out: IC50 P. falciparum V1/S
# From the text: as §1
# [3] = molecular target: T1, Human dihydrofolate reductase (hDHFR) (Homo sapiens, UniProt P00374); assay: Inhibition of human dihydrofolate reductase (Ki); type: biochemical; details: human DHFR; hydrochloride salts
# T1 sequence (P00374 1-187): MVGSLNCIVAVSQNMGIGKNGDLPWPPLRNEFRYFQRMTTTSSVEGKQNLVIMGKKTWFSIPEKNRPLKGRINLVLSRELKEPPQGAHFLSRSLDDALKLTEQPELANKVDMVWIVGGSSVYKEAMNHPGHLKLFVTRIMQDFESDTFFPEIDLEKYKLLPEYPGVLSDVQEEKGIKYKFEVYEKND
# wild type (WT) pfDHFR = wild type (WT) pfDHFR (Plasmodium falciparum, UniProt P13922, N108S/R59C); assay: Inhibition of wild type pfDHFR (Ki); type: biochemical
# Chain of wild type (WT) pfDHFR (P13922 whole entry R59C/N108S): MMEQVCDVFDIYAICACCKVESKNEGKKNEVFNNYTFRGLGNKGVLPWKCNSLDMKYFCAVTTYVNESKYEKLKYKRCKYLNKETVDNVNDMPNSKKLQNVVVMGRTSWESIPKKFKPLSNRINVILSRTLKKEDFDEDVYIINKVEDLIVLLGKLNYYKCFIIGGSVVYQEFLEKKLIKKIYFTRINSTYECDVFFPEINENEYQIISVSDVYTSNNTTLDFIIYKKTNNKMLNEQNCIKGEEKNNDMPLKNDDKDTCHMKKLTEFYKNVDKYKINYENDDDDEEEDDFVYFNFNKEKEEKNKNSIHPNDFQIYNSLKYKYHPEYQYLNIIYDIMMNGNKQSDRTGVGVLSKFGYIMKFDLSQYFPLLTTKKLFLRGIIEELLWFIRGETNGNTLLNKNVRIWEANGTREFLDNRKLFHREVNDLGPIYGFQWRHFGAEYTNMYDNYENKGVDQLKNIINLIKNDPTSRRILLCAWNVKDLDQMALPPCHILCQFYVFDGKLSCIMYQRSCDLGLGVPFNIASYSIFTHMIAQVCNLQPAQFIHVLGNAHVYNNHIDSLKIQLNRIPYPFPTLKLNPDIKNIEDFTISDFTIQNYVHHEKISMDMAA
# Procedure: (§2) The synthesized 2,4-diamino-6-ethylpyrimdine derivatives as the hydrochloride salts were tested for the activities against Plasmodium falciparum (P. falciparum) according to the standard methods. These include the inhibition of dihydrofolate reductase (DHFR) enzymes of P. falciparum including, wild type (WT) and quadruple mutants (N51IC59RS108NI164L) (QM). The inhibition was expressed as inhibition constants (Ki) in nano molar (nM).
# [4] = molecular target: quadruple mutant N51I + C59R + S108N + I164L (QM) pfDHFR (Plasmodium falciparum, UniProt P13922, I164L/N51I); assay: Inhibition of quadruple mutant pfDHFR (Ki); type: biochemical
# Chain of quadruple mutant N51I + C59R + S108N + I164L (QM) pfDHFR (P13922 whole entry N51I/I164L): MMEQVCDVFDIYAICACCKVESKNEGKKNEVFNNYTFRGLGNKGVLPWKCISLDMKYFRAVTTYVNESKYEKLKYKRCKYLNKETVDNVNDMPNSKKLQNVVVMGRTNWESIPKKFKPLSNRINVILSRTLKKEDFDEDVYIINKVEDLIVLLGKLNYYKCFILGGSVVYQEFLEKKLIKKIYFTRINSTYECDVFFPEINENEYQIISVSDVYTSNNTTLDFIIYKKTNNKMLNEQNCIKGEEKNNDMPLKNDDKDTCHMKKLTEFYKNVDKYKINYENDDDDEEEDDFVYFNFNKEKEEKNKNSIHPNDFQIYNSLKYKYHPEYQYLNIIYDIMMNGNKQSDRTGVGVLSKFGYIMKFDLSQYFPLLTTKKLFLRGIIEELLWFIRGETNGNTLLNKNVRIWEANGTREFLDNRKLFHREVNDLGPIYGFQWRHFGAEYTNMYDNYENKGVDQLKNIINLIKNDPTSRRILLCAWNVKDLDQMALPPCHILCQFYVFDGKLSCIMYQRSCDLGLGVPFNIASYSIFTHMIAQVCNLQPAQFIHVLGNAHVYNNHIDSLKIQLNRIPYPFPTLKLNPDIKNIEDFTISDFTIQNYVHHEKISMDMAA
# Procedure: as §2
# in vitro = details: African green monkey
# From the text: as §1
# [5] = in vitro, wild-type strain TM4/8.2
# [6] = in vitro, quadruple mutant strain V1/S
SMILES,IC50 [1] [nM],IC50 [2] [nM],Ki [3] [nM],Ki (wild type (WT) pfDHFR) [nM],Ki [4] [nM],IC50 (in vitro) [nM],"IC50 [1, 5] [nM]","IC50 [2, 6] [nM]",Ki hDHFR [3],"Ki pfDHFR N51I + C59R + S108N + I164L (QM) ([4]; quadruple mutant pfDHFR, hydrochloride salts)"
CCc1nc(N)nc(N)c1-c1cn(CCCc2ccccc2)nn1 [Compound 8],5580 ± 670,32300 ± 3060,3680 ± 480,2.82 ± 0.1,49.8 ± 1.89,> 50000,,,,
CCc1nc(N)nc(N)c1-c1cn(CCOc2ccc(Cl)cc2)nn1 [Compound 9],2240 ± 600,15900 ± 5630,1670 ± 59.5,1.14 ± 0.06,10.8 ± 1.02,47400 ± 11600,,,,
CCc1nc(N)nc(N)c1-c1cn(CCOc2ccc(C(=O)OC)cc2)nn1 [Compound 10],,,,1.01 ± 0.04,6.96 ± 1.12,38900 ± 2140,880 ± 360,21000 ± 4490,High,
CCc1nc(N)nc(N)c1-c1cn(CCCOc2ccc(Cl)cc2)nn1 [Compound 11],,,1120 ± 91.4,1.12 ± 0.08,32.1 ± 8.31,48700 ± 13600,2420 ± 550,> 50000,,
CCc1nc(N)nc(N)c1-c1cn(CCCOc2ccc(C(=O)OC)cc2)nn1 [Compound 12],970 ± 400,> 50000,875 ± 27.9,0.82 ± 0.06,34 ± 5.51,47600 ± 6270,,,,
CCc1nc(N)nc(N)c1OCc1cn(-c2ccccc2)nn1 [Compound 13],,,,3.27 ± 0.28,377 ± 20.5,> 25000,5730 ± 350,> 25000,High,
CCc1nc(N)nc(N)c1OCc1cn(-c2cccc([N+](=O)[O-])c2)nn1 [Compound 14],,,> 500000,8.62 ± 1.15,237 ± 41.7,> 50000,3420 ± 610,4430 ± 1130,,
CCc1nc(N)nc(N)c1OCc1cn(-c2cccc(C(=O)OC)c2)nn1 [Compound 15],,,,1.85 ± 0.36,208 ± 16.6,> 50000,730 ± 230,17600 ± 1500,High,
CCc1nc(N)nc(N)c1OCc1cn(-c2ccc([N+](=O)[O-])cc2)nn1 [Compound 17],,,> 500000,42.7 ± 0.99,1990 ± 318,> 50000,4250 ± 1370,14900 ± 3820,,
CCc1nc(N)nc(N)c1OCc1cn(-c2ccc(C(=O)OC)cc2)nn1 [Compound 18],,,,6.54 ± 1.25,833 ± 45,> 50000,10500 ± 3100,13600 ± 3220,High,
CCc1nc(N)nc(N)c1OCc1cn(-c2ccc(C(=O)O)cc2)nn1 [Compound 19],,,,7.79 ± 1.33,671 ± 27.2,> 10000,> 10000,> 10000,High,
CCc1nc(N)nc(N)c1OCCc1cn(-c2cccc(C(=O)O)c2)nn1 [Compound 20],,,80.2 ± 3.28,0.39 ± 0.06,1.73 ± 0.18,> 25000,670 ± 340,1740 ± 510,,
CCc1nc(N)nc(N)c1OCCc1cn(-c2ccc(C(=O)OC)cc2)nn1 [Compound 21],,,1060 ± 89.5,0.48 ± 0.1,8.56 ± 1.46,> 25000,490 ± 70,> 25000,,
CCc1nc(N)nc(N)c1OCCc1cn(-c2ccc(C(=O)O)cc2)nn1 [Compound 22],,,,0.26 ± 0.04,4.64 ± 0.6,> 50000,620 ± 180,> 50000,High,
CCc1nc(N)nc(N)c1OCCCc1cn(-c2cccc(C(=O)O)c2)nn1 [Compound 23],,,22.7 ± 2.76,0.25 ± 0.02,0.42 ± 0.06,> 25000,6.4 ± 0.5,320 ± 120,,
CCc1nc(N)nc(N)c1OCCCc1cn(-c2ccc(C(=O)OC)cc2)nn1 [Compound 24],55 ± 6,> 2000,19 ± 1.92,0.15 ± 0.02,1.9 ± 0.08,> 2000,,,,
CCc1nc(N)nc(N)c1OCCCc1cn(-c2ccc(C(=O)O)cc2)nn1 [Compound 25],36 ± 10,4650 ± 120,44.8 ± 1.92,0.35 ± 0.04,3.52 ± 0.73,6400 ± 1080,,,,
CCc1nc(N)nc(N)c1OCc1cn(Cc2cccc(C(=O)O)c2)nn1 [Compound 26],,,,19.5 ± 1.06,388 ± 26.2,> 25000,> 25000,> 25000,High,
CCc1nc(N)nc(N)c1OCc1cn(Cc2cc(F)c(O)c(F)c2)nn1 [Compound 27],,,,9.41 ± 0.85,285 ± 14.1,> 50000,16100 ± 6020,> 50000,High,
CCc1nc(N)nc(N)c1OCc1cn(Cc2ccc(O)cc2)nn1 [Compound 28],,,,53.7 ± 5.6,,> 1000,> 1000,> 1000,High,High
CCc1nc(N)nc(N)c1OCc1cc(-c2ccc(C(F)(F)F)cc2)no1 [Compound 41],,,> 100000,4.29 ± 0.31,,> 10000,6780 ± 2210,> 10000,,
